Earlier results, collected in patent publication US7853626B2, “Computational systems for biomedical data” (The Invention Science Fund I, LLC, priority 2006, dated 2010).
Like-named read-outs stand apart in the source and are kept apart here.

Key:
hyperthyroidism = conditions: groups not comparable at baseline (surgery group younger, in better health)

Compound	frequency of illness and death compared with surgery (hyperthyroidism)	subset efficacy (members of the identified subpopulation (low methylmalonic acid / homocysteine))	odds ratio of developing severe toxicity (overall study population)	odds ratio of developing severe toxicity (subpopulation with total homocysteine levels of less than 7.5 μmol/l)
[131IH] [iodine-131]	much higher frequency of illness and death			
Nc1nc2[nH]cc(CCc3ccc(C(=O)N[C@@H](CCC(=O)O)C(=O)O)cc3)c2c(=O)[nH]1 [pemetrexed]		maintained or improved efficacy	1	0.7
